This is an account of results in ChEMBL document CHEMBL5728495, “Substituted isoindolin-1-ones and 2,3-dihydro-1h-pyrrolo[3,4-c]pyridin-1-ones as HPK1 antagonists” (2021).

Each structure is given as a SMILES string. Where only a bound is given, the exact number is not on record here.

The target of this assay is Mitogen-activated protein kinase kinase kinase kinase 1 (Homo sapiens, UniProt Q92918). Briefly: Biochemical Enzyme Assay: HPK1 biochemical enzyme assay: HPK1 enzyme inhibition was measured using a microfluidic mobility shift assay. […] Test compounds were titrated in ten point curves (top final assay concentration 3 μM), and preincubated with enzyme/substrate mix for 30 min prior to initiation of the reaction by addition of ATP (1 mM final concentration) and substrate (1 μM final concentration; Carna Biosciences) diluted in assay buffer supplemented by MgCl2 (final assay concentration of 5 mM). Following 60 min incubation at RT, the reaction was terminated by addition of 60 µl/well termination buffer (Carna Biosciences) and signal determination using aCaliper EZ Reader (Perkin Elmer, UK).
Sequence of Mitogen-activated protein kinase kinase kinase kinase 1 (Q92918 whole entry): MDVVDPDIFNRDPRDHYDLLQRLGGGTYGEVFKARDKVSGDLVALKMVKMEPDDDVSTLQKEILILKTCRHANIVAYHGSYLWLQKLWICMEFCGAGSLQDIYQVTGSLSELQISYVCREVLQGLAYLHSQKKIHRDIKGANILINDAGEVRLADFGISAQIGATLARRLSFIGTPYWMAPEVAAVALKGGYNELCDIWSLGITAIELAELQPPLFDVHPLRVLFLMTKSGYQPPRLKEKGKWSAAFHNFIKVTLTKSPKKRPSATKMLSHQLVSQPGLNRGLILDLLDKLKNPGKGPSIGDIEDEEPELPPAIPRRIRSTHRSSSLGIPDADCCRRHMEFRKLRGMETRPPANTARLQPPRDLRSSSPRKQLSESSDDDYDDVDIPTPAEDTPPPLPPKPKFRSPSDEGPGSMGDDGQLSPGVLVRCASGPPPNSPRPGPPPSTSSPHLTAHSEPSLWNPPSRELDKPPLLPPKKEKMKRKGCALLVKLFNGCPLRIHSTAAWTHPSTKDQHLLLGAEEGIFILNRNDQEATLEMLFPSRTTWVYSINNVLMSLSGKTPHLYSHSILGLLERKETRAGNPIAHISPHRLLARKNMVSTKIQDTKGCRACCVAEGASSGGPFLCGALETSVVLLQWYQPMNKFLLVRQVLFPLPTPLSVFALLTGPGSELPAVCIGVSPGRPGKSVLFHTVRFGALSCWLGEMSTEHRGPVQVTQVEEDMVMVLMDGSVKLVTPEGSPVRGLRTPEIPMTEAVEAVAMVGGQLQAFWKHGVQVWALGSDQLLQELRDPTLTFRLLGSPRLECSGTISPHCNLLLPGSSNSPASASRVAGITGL

For the compound `COCC1(O)CCN(c2ccc(Nc3ccc(-c4cnc5cc(F)ccn45)c4c3C(=O)NC4)nc2)CC1`, the IC50 is less than 100 nM.

In the case of `O=C1NCc2c(-c3cnc4cc(F)ccn34)ccc(Nc3ccc([C@]4(O)CCOC4)cn3)c21`, the IC50 was less than 100 nM.

In the case of `Cn1ccc2c(-c3ccc(Nc4ccc(N5CCO[C@H](C(C)(C)O)C5)cn4)c4c3CNC4=O)ncnc21`, the IC50 was less than 100 nM.

Regarding `Cn1ccc2c(-c3ncc(Nc4ccc(N5CCOCC5)cn4)c4c3CNC4=O)ccnc21`, the IC50 was less than 100 nM.

Consider `CN(C)C[C@H]1CN(c2ccc(Nc3cnc(-c4ccnc5c4ccn5C)c4c3C(=O)NC4)nc2)CCO1`, for which the IC50 is less than 100 nM.

Take `CN(C)CCc1nc(Nc2ccc(-c3cnc4cc(F)ccn34)c3c2C(=O)NC3)ccc1[C@H]1CCOC1`: the IC50 was less than 100 nM.

In the case of `CN(C)CCc1nc(Nc2ccc(-c3cnc4cc(F)ccn34)c3c2C(=O)NC3)ccc1[C@@H]1CCOC1`, the IC50 is less than 100 nM.

`Cc1ccn2c(-c3ccc(Nc4ccc(N5CCC[C@](O)(CN(C)C)C5)cn4)c4c3CNC4=O)cnc2c1F`: the half-inhibitory concentration (IC50) was less than 100 nM.

For the compound `C[C@@H]1CCn2ncc(-c3ccc(Nc4ccc(N5CCN(C)CC5)cn4)c4c3CNC4=O)c2C1`, the IC50 is less than 100 nM.

As for `COc1cc(Nc2ccc(-c3ccnc4c3ccn4C)c3c2C(=O)NC3)ncc1N1CCC(O)CC1`, the half-inhibitory concentration (IC50) is less than 100 nM.

Regarding `O=C1NCc2c(-c3cnc4ccccn34)ncc(Nc3ccc(N4CC[C@@H](F)[C@H](O)C4)cn3)c21`, the IC50 is less than 100 nM.

Take `CN(C)C[C@H]1CN(c2ccc(Nc3ccc(-c4cnc5cc(Cl)ccn45)c4c3C(=O)NC4)nc2)CCO1`: the IC50 is less than 100 nM.

Turning to `CC(C)(NC1CC1)C1CN(c2ccc(Nc3ccc(-c4cnc5cc(F)ccn45)c4c3C(=O)NC4)nc2)CCO1` (stereo unspecified), the IC50 is less than 100 nM.

For `O=C1NCc2c(-c3cnc4cc(F)ccn34)ccc(Nc3ccc([C@@]4(O)CCOC4)cn3)c21`, the IC50 was less than 100 nM.

As for `Cn1ccc2c(-c3ccc(Nc4ccc(N5CCO[C@@H](C(C)(C)O)C5)cn4)c4c3CNC4=O)ncnc21`, the IC50 is less than 100 nM.

Take `COC1(CO)CCN(c2ccc(Nc3ccc(-c4cnc5cc(F)ccn45)c4c3C(=O)NC4)nc2)CC1`: the half-maximal inhibitory concentration (IC50) is less than 100 nM.

As to `Cc1ccn2c(-c3ccc(Nc4ccc(N5CCC[C@@](O)(CN(C)C)C5)cn4)c4c3CNC4=O)cnc2c1F`, the IC50 was less than 100 nM.

With `CCN(C)Cc1nc(Nc2ccc(-c3cnc4cc(F)ccn34)c3c2C(=O)NC3)ccc1[C@H]1CCOC1`, the IC50 is less than 100 nM.

As for `O=C1NCc2c(-c3cnc4ccccn34)ncc(Nc3ccc(C4(O)CCOCC4)cn3)c21`, the half-maximal inhibitory concentration (IC50) is less than 100 nM.

`Cc1cc(Nc2ccc(N3CCC(O)CC3)cn2)c2c(c1-c1cccc3c1ccn3C)CNC2=O`: the IC50 is less than 100 nM.

Consider `CN(C)C1(c2ccc(Nc3ccc(-c4cnc5cc(F)ccn45)c4c3C(=O)NC4)nc2)CCOCC1`, for which the IC50 was less than 100 nM.

As to `CN1CC[C@H](c2ccc(Nc3cnc(-c4ccnc5c4ccn5C)c4c3C(=O)NC4)nc2)CC1=O`, the IC50 was less than 100 nM.

For `Cn1ccc2c(-c3ncc(Nc4ccc(N5CCC(C)(O)CC5)cn4)c4c3CNC4=O)ccnc21`, the IC50 is less than 100 nM.

For the compound `CN(C)C[C@@H]1CN(c2ccc(Nc3cnc(-c4ccnc5c4ccn5C)c4c3C(=O)NC4)nc2)CCO1`, the IC50 was less than 100 nM.

For `O=C1NCc2c(-c3cnc4cc(C(F)F)ccn34)ccc(Nc3ccc([C@]4(O)CCOC4)cn3)c21`, the half-inhibitory concentration (IC50) is less than 100 nM.

Regarding `CN1CC[C@@H](c2ccc(Nc3cnc(-c4ccnc5c4ccn5C)c4c3C(=O)NC4)nc2)CC1=O`, the IC50 was less than 100 nM.
